For three compounds, inhibition results are on record in paper PMC6668146, “Molecular characterization and functional analysis of the Schistosoma mekongi Ca^2+-dependent cysteine protease (calpain)” (Parasites & Vectors, 2019).

Peptide text beside a SMILES is read from it. * marks the point of attachment. Cbz = O=C(OCc1ccccc1)*

This assay concerns the target rSmeCalp1 (recombinant Schistosoma mekongi calpain 1) (Schistosoma mekongi, UniProt A0A5B8WCQ5). The experiment in a line: fluorogenic protease assay (AMC release). The assay is classed as biochemical.

Chain of rSmeCalp1 (recombinant Schistosoma mekongi calpain 1) (A0A5B8WCQ5 entry or part of it): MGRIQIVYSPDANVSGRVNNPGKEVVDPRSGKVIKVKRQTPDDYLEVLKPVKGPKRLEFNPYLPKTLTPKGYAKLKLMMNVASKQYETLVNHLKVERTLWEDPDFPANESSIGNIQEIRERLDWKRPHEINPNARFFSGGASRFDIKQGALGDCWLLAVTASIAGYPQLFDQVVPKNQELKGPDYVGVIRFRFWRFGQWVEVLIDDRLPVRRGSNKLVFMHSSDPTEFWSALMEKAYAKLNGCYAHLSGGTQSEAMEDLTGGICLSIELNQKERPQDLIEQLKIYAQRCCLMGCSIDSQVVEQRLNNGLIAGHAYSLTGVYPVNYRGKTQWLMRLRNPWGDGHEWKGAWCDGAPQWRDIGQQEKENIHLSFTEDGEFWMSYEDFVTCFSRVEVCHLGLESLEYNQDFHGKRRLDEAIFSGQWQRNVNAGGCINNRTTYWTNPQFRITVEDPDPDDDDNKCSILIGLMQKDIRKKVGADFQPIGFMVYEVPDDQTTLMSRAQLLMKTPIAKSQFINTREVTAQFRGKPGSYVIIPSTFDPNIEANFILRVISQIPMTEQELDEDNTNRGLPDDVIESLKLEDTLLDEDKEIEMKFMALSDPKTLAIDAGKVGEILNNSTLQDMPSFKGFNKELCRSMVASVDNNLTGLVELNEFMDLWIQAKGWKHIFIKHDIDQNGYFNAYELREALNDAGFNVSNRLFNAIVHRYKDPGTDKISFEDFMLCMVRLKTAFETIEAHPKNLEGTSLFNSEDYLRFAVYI

As usually defined, the inhibition is the percentage by which the read-out fell short of the control. With `CC(C)C[C@H](NC(=O)[C@@H]1O[C@H]1C(=O)O)C(=O)NCCCCN=C(N)N` [E64], the inhibition at 100 µM was determined as 98%.

On to `CC(C)CCNC(=O)[C@H](CC(C)C)NC(=O)[C@H]1O[C@@H]1C(=O)O` [E64c], for which the inhibition at 100 µM turned out to be 87%.

For the compound `CC(C)[C@H](NC(=O)OCc1ccccc1)C(=O)N[C@H](C=O)Cc1ccccc1` [MDL28170] (Cbz-Val-Phe-aldehyde), the inhibition at 100 µM was 94%.
